In patent US20240279220A1, “INDOLE COMPOUNDS AND METHODS OF USE” (Genzyme Corporation, priority 2021, published 2024):

Each compound was assayed on NBD1/3D (assay: Aggregation analysis using differential static light scattering (DSLS), NBD1 thermal stability). Details: ΔTagg versus DMSO control; compound at 100 μM.
Type: binding, Human
How it was run: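 Thermal stabilisation reported as ΔTagg, i.e. aggregation temperature relative to averaged DMSO wells. Tagg came from the inflection of differential static light scattering imaged 25–70 °C while NBD1 (0.2 mg/ml, Tris pH 7.6 buffer containing ATP, MgCl2, DTT, glycerol) was ramped 1 °C/min.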

Row | Structure (SMILES) | DSLS NBD1/3D Human Stability delta-T (° C.) @ 100 (μM)
1 | O=C(O)CCc1cccc(Cc2c[nH]c(-c3cc(Oc4c(F)cc5[nH]ccc5c4CC(F)F)ccc3F)n2)c1 [Example 117, 3-(3-((2-(5-((4-(2,2-difluoroethyl)-6-fluoro-1H-indol-5-yl)oxy)-2-fluorophenyl)-1H-imidazol-4-yl)methyl)phenyl)propanoic acid] | B (B: 5-10° C.)
2 | N#Cc1c(CCC(=O)O)cccc1Cc1cnc(-c2cc(Oc3c(F)cc4[nH]ccc4c3F)ccc2F)[nH]1 [Example 122, 3-(2-cyano-3-((2-(5-((4,6-difluoro-1H-indol-5-yl)oxy)-2-fluorophenyl)-1H-imidazol-5-yl)methyl)phenyl)propanoic acid] | B (B: 5-10° C.)
3 | NC(=O)CCc1cccc(Cc2c[nH]c(-c3cc(Oc4c(F)cc5[nH]ccc5c4F)ccc3F)n2)c1 [Example 127, 3-(3-((2-(5-((4,6-Difluoro-1H-indol-5-yl)oxy)-2-fluorophenyl)-1H-imidazol-4-yl)methyl)phenyl)propanamide] | C (C: ≤5° C.)
4 | NCc1c(CCC(=O)O)cccc1Cc1cnc(-c2cc(Oc3c(F)cc4[nH]ccc4c3F)ccc2F)[nH]1 [Example 141, 3-(2-(Aminomethyl)-3-((2-(5-((4,6-difluoro-1H-indol-5-yl)oxy)-2-fluorophenyl)-1H-imidazol-5-yl)methyl)phenyl)propanoic acid] | C (C: ≤5° C.)
5 | CC1CC(c2cccc(CCC(=O)O)c2)(c2cnc(-c3cc(Oc4c(F)cc5[nH]ccc5c4F)ccc3F)[nH]2)CC(C)O1 (centres unmarked) [Example 142, 3-(3-(4-(2-(5-((4,6-Difluoro-1H-indol-5-yl)oxy)-2-fluorophenyl)-1H-imidazol-5-yl)-2,6-dimethyltetrahydro-2H-pyran-4-yl)phenyl)propanoic acid] | A (A: T ≥ 10° C.)
6 | O=C(O)CCc1cccc(C2(c3cnc(-c4cc(Oc5c(F)cc6[nH]ccc6c5F)ccc4F)[nH]3)CC2)c1 [Example 143, 3-(3-(1-(2-(5-((4,6-difluoro-1H-indol-5-yl)oxy)-2-fluorophenyl)-1H-imidazol-5-yl)cyclopropyl)phenyl)propanoic acid] | B (B: 5-10° C.)
7 | Cc1c(Oc2ccc(F)c(-c3ncc(C(C)(C)c4cccc(CCC(=O)O)c4)[nH]3)c2)c(F)cc2[nH]ccc12 [Example 144, 3-(3-(2-(2-(2-fluoro-5-((6-fluoro-4-methyl-1H-indol-5-yl)oxy)phenyl)-1H-imidazol-5-yl)propan-2-yl)phenyl)propanoic acid] | B (B: 5-10° C.)
8 | CC(C)(c1cccc(CCC(=O)O)c1)c1cnc(-c2cc(Oc3c(F)cc4[nH]ccc4c3F)ccc2F)[nH]1 [Example 145, 3-(3-(2-(2-(5-((4,6-difluoro-1H-indol-5-yl)oxy)-2-fluorophenyl)-1H-imidazol-5-yl)propan-2-yl)phenyl)propanoic acid] | B (B: 5-10° C.)
9 | Cc1c(Oc2ccc(F)c(-c3ncc(C4(c5cccc(CCC(=O)O)c5)CCCC4)[nH]3)c2)c(F)cc2[nH]ccc12 [Example 146, 3-(3-(1-(2-(2-fluoro-5-((6-fluoro-4-methyl-1H-indol-5-yl)oxy)phenyl)-1H-imidazol-5-yl)cyclopentyl)phenyl)propanoic acid] | B (B: 5-10° C.)
10 | Cc1c(Oc2ccc(F)c(-c3nc(C4(c5cccc(CCC(=O)O)c5)CCCCC4)c[nH]3)c2)c(F)cc2[nH]ccc12 [Example 147, 3-(3-(1-(2-(2-fluoro-5-((6-fluoro-4-methyl-1H-indol-5-yl)oxy)phenyl)-1H-imidazol-4-yl)cyclohexyl)phenyl)propanoic acid] | B (B: 5-10° C.)
11 | Cc1c(Oc2ccc(F)c(-c3ncc(C4(c5cccc(CCC(=O)O)c5)CCOCC4)[nH]3)c2)c(F)cc2[nH]ccc12 [Example 148, 3-(3-(4-(2-(2-fluoro-5-((6-fluoro-4-methyl-1H-indol-5-yl)oxy)phenyl)-1H-imidazol-5-yl)tetrahydro-2H-pyran-4-yl)phenyl)propanoic acid] | A (A: T ≥ 10° C.)
12 | Cc1c(Oc2ccc(F)c(-c3ncc(C4(c5cccc(CCC(=O)O)c5)CC(C)OC(C)C4)[nH]3)c2)c(F)cc2[nH]ccc12 (centres unmarked) [Example 149, 3-(3-(4-(2-(2-fluoro-5-((6-fluoro-4-methyl-1H-indol-5-yl)oxy)phenyl)-1H-imidazol-5-yl)-2,6-dimethyltetrahydro-2H-pyran-4-yl)phenyl)propanoic acid] | B (B: 5-10° C.)
13 | O=C(O)CCc1cccc(C2(c3cnc(-c4cc(Oc5c(F)cc6[nH]ccc6c5F)ccc4F)[nH]3)CCOC2)c1 (centres unmarked) [Example 150, 3-(3-(3-(2-(5-((4,6-difluoro-1H-indol-5-yl)oxy)-2-fluorophenyl)-1H-imidazol-5-yl)tetrahydrofuran-3-yl)phenyl)propanoic acid] | A (A: T ≥ 10° C.)
14 | Cc1c(Oc2ccc(F)c(-c3ncc(C4(c5cccc(CCC(=O)O)c5)CCOC4)[nH]3)c2)c(F)cc2[nH]ccc12 (centres unmarked) [Example 153, 3-(3-(3-(2-(2-fluoro-5-((6-fluoro-4-methyl-1H-indol-5-yl)oxy)phenyl)-1H-imidazol-5-yl)tetrahydrofuran-3-yl)phenyl)propanoic acid] | A (A: T ≥ 10° C.)
15 | Cc1c(Oc2ccc(F)c(-c3ncc(C4(c5cc(F)cc(CCC(=O)O)c5)CC4)[nH]3)c2)c(F)cc2[nH]ccc12 [Example 156, 3-(3-fluoro-5-(1-(2-(2-fluoro-5-((6-fluoro-4-methyl-1H-indol-5-yl)oxy)phenyl)-1H-imidazol-5-yl)cyclopropyl)phenyl)propanoic acid] | B (B: 5-10° C.)
16 | CC(C)(c1cnc(-c2cc(Oc3c(F)c(F)c4[nH]ccc4c3F)ccc2F)[nH]1)c1cccc(CCC(=O)O)c1F [Example 157, 3-(2-fluoro-3-(2-(2-(2-fluoro-5-((4,6,7-trifluoro-1H-indol-5-yl)oxy)phenyl)-1H-imidazol-5-yl)propan-2-yl)phenyl)propanoic acid] | B (B: 5-10° C.)
17 | Cc1c(Oc2ccc(F)c(-c3nc(C(C)(C)c4cccc(CCC(=O)O)c4F)c[nH]3)c2)c(F)c(F)c2[nH]ccc12 [Example 158, 3-(3-(2-(2-(5-((6,7-difluoro-4-methyl-1H-indol-5-yl)oxy)-2-fluorophenyl)-1H-imidazol-4-yl)propan-2-yl)-2-fluorophenyl)propanoic acid] | B (B: 5-10° C.)
18 | CC(C)(c1cnc(-c2cc(Oc3c(F)cc4[nH]ccc4c3F)ccc2F)[nH]1)c1cccc(CCC(=O)O)c1F [Example 160, 3-(3-(2-(2-(5-((4,6-difluoro-1H-indol-5-yl)oxy)-2-fluorophenyl)-1H-imidazol-5-yl)propan-2-yl)-2-fluorophenyl)propanoic acid] | B (B: 5-10° C.)
19 | Cc1c(Oc2ccc(F)c(-c3ncc(C(C)(C)c4cccc(CCC(=O)O)c4F)[nH]3)c2)ccc2[nH]ccc12 [Example 161, 3-(2-fluoro-3-(2-(2-(2-fluoro-5-((4-methyl-1H-indol-5-yl)oxy)phenyl)-1H-imidazol-5-yl)propan-2-yl)phenyl)propanoic acid] | B (B: 5-10° C.)
20 | CC(C)(c1cnc(-c2cc(Oc3ccc4[nH]ccc4c3F)ccc2F)[nH]1)c1cccc(CCC(=O)O)c1F [Example 162, 3-(2-fluoro-3-(2-(2-(2-fluoro-5-((4-fluoro-1H-indol-5-yl)oxy)phenyl)-1H-imidazol-5-yl)propan-2-yl)phenyl)propanoic acid] | B (B: 5-10° C.)
21 | CC(C)(c1cnc(-c2cc(Oc3c(F)cc4[nH]ccc4c3CC(F)(F)F)ccc2F)[nH]1)c1cccc(CCC(=O)O)c1F [Example 163, 3-(2-fluoro-3-(2-(2-(2-fluoro-5-((6-fluoro-4-(2,2,2-trifluoroethyl)-1H-indol-5-yl)oxy)phenyl)-1H-imidazol-5-yl)propan-2-yl)phenyl)propanoic acid] | B (B: 5-10° C.)
22 | CC(C)(c1c[nH]c(-c2cc(Oc3c(F)cc4[nH]ccc4c3Cl)ccc2F)n1)c1cccc(CCC(=O)O)c1F [Example 164, 3-(3-(2-(2-(5-((4-chloro-6-fluoro-1H-indol-5-yl)oxy)-2-fluorophenyl)-1H-imidazol-4-yl)propan-2-yl)-2-fluorophenyl)propanoic acid] | B (B: 5-10° C.)
23 | O=C(O)CCc1cccc(C2(c3cnc(-c4cc(Oc5nc6cc[nH]c6cc5F)ccc4F)[nH]3)CC(F)(F)C2)c1 [Example 165, 3-(3-(3,3-difluoro-1-(2-(2-fluoro-5-((6-fluoro-1H-pyrrolo[3,2-b]pyridin-5-yl)oxy)phenyl)-1H-imidazol-5-yl)cyclobutyl)phenyl)propanoic acid] | B (B: 5-10° C.)
24 | O=C(O)CCc1cccc(C2(c3cnc(-c4cc(Oc5ccc6scnc6c5)ccc4F)[nH]3)CCOCC2)c1 [Example 166, 3-(3-(4-(2-(5-(Benzo[d]thiazol-5-yloxy)-2-fluorophenyl)-1H-imidazol-5-yl)tetrahydro-2H-pyran-4-yl)phenyl)propanoic acid] | C (C: ≤5° C.)
25 | Cc1c(Oc2ccc(F)c(-c3ncc(C4(c5cccc(CCC(=O)O)c5)CCN(CC(F)(F)F)CC4)[nH]3)c2)c(F)cc2[nH]ccc12 [Example 168, 3-(3-(4-(2-(2-fluoro-5-((6-fluoro-4-methyl-1H-indol-5-yl)oxy)phenyl)-1H-imidazol-5-yl)-1-(2,2,2-trifluoroethyl)piperidin-4-yl)phenyl)propanoic acid] | B (B: 5-10° C.)
26 | Cc1c(Oc2cccc(-c3ncc(C(O)c4cccc(CC(F)C(=O)O)c4)[nH]3)c2)ccc2[nH]ccc12 (centres unmarked) [Example 172, 2-Fluoro-3-(3-(hydroxy(2-(3-((4-methyl-1H-indol-5-yl)oxy)phenyl)-1H-imidazol-5-yl)methyl)phenyl)propanoic acid] | A (A: T ≥ 10° C.)
